What all share (format): in vivo
Assay [1] has as its system Abutilon theophasti Medik. (ABUTH). The assay can be described thus: Test 1A glasshouse assay for herbicidal activity, pre-emergence. As to conditions: 312 h, 250 g/ha, evaluated after 13 days, read-out: percentage phytotoxicity ABUTH. The procedure: (§1) Seeds of a variety of test species were sown in standard soil in pots. After cultivation for one day (pre-emergence) or after 8 days cultivation (post-emergence) under controlled conditions in a glasshouse (at 24/16° C., day/night; 14 hours light; 65% humidity), the plants were sprayed with an aqueous spray solution derived from the formulation of the technical active ingredient in acetone/I water (50:50) solution containing 0.5% Tween 20 (polyoxyethelyene sorbitan monolaurate, CAS RN 9005-64-5). The test plants were then grown in a glasshouse under controlled conditions in a glasshouse (at 24/16° C., day/night; 14 hours light; 65% humidity) and watered twice daily. After 13 days for pre and post-emergence, the test was evaluated visually for percentage phytotoxicity to the plant (where 100=total damage to plant; 0=no damage to plant).
(§2) Alopecurus myosuroides (ALOMY), Setaria faberi (SETFA), Echinochloa crus-galli (ECHCG), Solanum nigrum (SOLNI), Amaranthus retroflexus (AMARE), Ipomoea hederacea (IPOHE), and Abutilon theophasti Medik. (ABUTH, common English name “velvetleaf”). Of these, Alopecurus myosuroides (ALOMY), Setaria faberi (SETFA), and Echinochloa crus-galli (ECHCG) are grassy monocotyledonous weeds.

Assay [2] concerns Alopecurus myosuroides (ALOMY). The description is as above. As to conditions: 312 h, 250 g/ha, evaluated after 13 days, read-out: percentage phytotoxicity ALOMY. The procedure: as §1, §2
In assay [3] the test system is Amaranthus retroflexus (AMARE). The description is as above. As to conditions: 312 h, 250 g/ha, evaluated after 13 days, read-out: percentage phytotoxicity AMARE. As for the experimental part: as §1, §2
Assay [4] concerns Echinochloa crus-galli (ECHCG). Described as above. As to conditions: 312 h, 250 g/ha, evaluated after 13 days, read-out: percentage phytotoxicity ECHCG. As for the experimental part: as §1, §2
The test system of assay [5] is Setaria faberi (SETFA). The description is as above. As to conditions: 312 h, 250 g/ha, evaluated after 13 days, read-out: percentage phytotoxicity SETFA. The procedure: as §1, §2
Assay [6] concerns Abutilon theophasti Medik. (ABUTH). The assay can be described thus: Test 1A glasshouse assay for herbicidal activity, post-emergence. As to conditions: 312 h, evaluated after 13 days, read-out: percentage phytotoxicity ABUTH. The procedure:
as §1, §2

The subject of assay [7] is Alopecurus myosuroides (ALOMY). The description is as above. As to conditions: 312 h, evaluated after 13 days, read-out: percentage phytotoxicity ALOMY. The procedure: as §1, §2
Assay [8] has as its system Amaranthus retroflexus (AMARE). Described as above. As to conditions: 312 h, evaluated after 13 days, read-out: percentage phytotoxicity AMARE. As for the experimental part: as §1, §2
The subject of assay [9] is Echinochloa crus-galli (ECHCG). The assay is described as above. As to conditions: 312 h, evaluated after 13 days, read-out: percentage phytotoxicity ECHCG. As for the experimental part:
as §1, §2

In assay [10] the test system is Setaria faberi (SETFA). Described as above. As to conditions: 312 h, evaluated after 13 days, read-out: percentage phytotoxicity SETFA. The procedure:
as §1, §2

The test system of assay [11] is Alopecurus myosuroides (ALOMY). Briefly: Biological Example 2 comparative herbicidal data, post-emergence glasshouse screen. As to conditions: 312 h, read-out: Post-emergence herbicidal activities (percentage phytotoxicity) ALOMY; for pest or weed control at 15.625 g/ha: 15.625 g/ha application rate; for pest or weed control at 62.5 g/ha: 62.5 g/ha application rate. As for the experimental part: as §1
(§3) Comparative herbicidal data is given below for certain exemplified compounds with 4-(prop-1-ynyl)-2,6-dimethylphenyl or 4-(chloroethynyl)-2,6-dimethylphenyl headgroups, compared to the corresponding compounds with either 4-ethynyl-2,6-dimethylphenyl or 2,4,6-trimethylphenyl headgroups, as follows. Comparative herbicidal data is also given below for certain exemplified compounds with 4-(prop-1-ynyl)-2-chloro-6-methoxyphenyl headgroups, compared to the corresponding compounds with 4-ethynyl-2-chloro-6-methoxyphenyl or 4-(but-1-ynyl)-2-chloro-6-methoxyphenyl or 4-methyl-2-chloro-6-methoxyphenyl or 2-chloro-6-methoxyphenyl headgroups, as follows.
(§4) Except where specified otherwise, the glasshouse screen for herbicidal activity is substantially the same as that presented in Biological Example 1A (Test 1A) hereinabove. The weed abbreviations are as defined in Biological Example 1A.

In assay [12] the test system is Echinochloa crus-galli (ECHCG). The assay is described as above. As to conditions: 312 h, read-out: Post-emergence herbicidal activities (percentage phytotoxicity) ECHCG; for pest or weed control at 15.625 g/ha: 15.625 g/ha application rate; for pest or weed control at 62.5 g/ha: 62.5 g/ha application rate. The procedure:
as §1, §3, §4

Assay [13] has as its system Setaria faberi (SETFA). The assay is described as above. As to conditions: 312 h, read-out: Post-emergence herbicidal activities (percentage phytotoxicity) SETFA; for pest or weed control at 15.625 g/ha: 15.625 g/ha application rate; for pest or weed control at 62.5 g/ha: 62.5 g/ha application rate. The procedure:
as §1, §3, §4

Take `CC#Cc1ccc(C2C(=O)C3CCC(C3)C2=O)c(Cl)c1` (stereo not drawn) [Compound A-11]: the pest or weed control at 250 g/ha in [1] came out at 50%; in assay [2] it was 100%; in [3], 70%; in assay [4], 100%; in the assay on Setaria faberi (SETFA) [5] it was 80%; in assay [6], 80%. The pest or weed control at 250 g/ha in assay [7] worked out at 100%; in assay [8] it was 30%; in assay [9], 100%; with Setaria faberi (SETFA) [10], 100%.
In the case of `CC#Cc1cc(Cl)c(C2C(=O)CC(CCSC)CC2=O)c(OC)c1` (stereo not drawn) [Compound A-23, 2-(2-Chloro-6-methoxy-4-prop-1-ynyl-phenyl)-5-(2-methylsulfanylethyl)cyclohexane-1,3-dione], the pest or weed control at 250 g/ha in assay [1] was found to be 30%; in assay [2], 90%; in assay [3], 70%; in assay [4], 100%; in the assay on Setaria faberi (SETFA) [5], 90%; in assay [6], 70%. Moreover, the pest or weed control at 250 g/ha in assay [7] was found to be 90%; in assay [8], 20%; in assay [9], 100%; in the assay on Setaria faberi (SETFA) [10] it was 100%. The pest or weed control at 30 g/ha in assay [6] is 30%; in assay [7], 60%; in [8] it was 10%; in assay [9], 100%; in the assay on Setaria faberi (SETFA) [10] it was 100%.
On to `CC#Cc1cc(Cl)c(C2C(=O)C3CCC(C3)C2=O)c(OCC(F)(F)F)c1` (stereo not drawn) [Compound A-19, 3-[2-chloro-4-prop-1-ynyl-6-(2,2,2-trifluoroethoxyl)phenyl]bicyclo[3.2.1]octane-2,4-dione], for which the pest or weed control at 250 g/ha in assay [1] worked out at 0%; in assay [2], 40%; in assay [3] it was 0%; in assay [4], 60%; in the assay on Setaria faberi (SETFA) [5], 60%; in assay [6], 0%. Further, the pest or weed control at 250 g/ha in [7] was determined as 70%; in assay [8], 0%; in assay [9], 100%; in the assay with Setaria faberi (SETFA) [10] it was 90%.
Take `CC#Cc1cc(C)c(C2=C(OC(=O)C(C)(C)C)C3CCC(C3)C2=O)c(C)c1` (stereo not drawn) [Compound P-5]: the pest or weed control at 250 g/ha in assay [1] came to 0%; in assay [2] it was 100%; in [3] it was 0%; in assay [4] it was 100%; with Setaria faberi (SETFA) [5], 100%; in assay [6], 70%. The pest or weed control at 250 g/ha is 90% in assay [7], 10% in [8], 100% in [9] and 90% in the assay with Setaria faberi (SETFA) [10]. Also, the pest or weed control at 30 g/ha in assay [6] was 0%; in [7], 60%; in assay [8] it was 0%; in [9] it was 80%; in the assay with Setaria faberi (SETFA) [10] it was 70%.
Consider `CC#Cc1cc(C)c(C2=C(OS(C)(=O)=O)CC(CC3CCOCC3)CC2=O)c(C)c1` (stereo not drawn) [Compound P-4], for which the pest or weed control at 250 g/ha in assay [1] amounted to 10%; in assay [2], 80%; in assay [3] it was 20%; in assay [4] it was 100%; with Setaria faberi (SETFA) [5] it was 80%; in assay [6] it was 0%. Besides, the pest or weed control at 250 g/ha in [7] worked out at 80%; in [8], 0%; in assay [9] it was 80%; in the assay on Setaria faberi (SETFA) [10] it was 80%.
On to `CC#Cc1cc(Cl)c(C2=C(OC(=O)C(C)(C)C)C3CCC(C3)C2=O)c(OC)c1` (stereo not drawn) [Compound P-7], for which the pest or weed control at 250 g/ha came to 0% in [1]; 100% in assay [2]; 0% in [3]; 100% in [4]; 100% in the assay on Setaria faberi (SETFA) [5]; 70% in assay [6]. Further, the pest or weed control at 250 g/ha stood at 100% in [7], 0% in [8], 100% in [9] and 100% with Setaria faberi (SETFA) [10]. The pest or weed control at 30 g/ha in assay [6] was determined as 10%; in assay [7] it was 90%; in assay [8], 0%; in [9] it was 100%; with Setaria faberi (SETFA) [10] it was 90%.
As to `C#Cc1cc(C)c(C2C(=O)CC(CC3CCOCC3)CC2=O)c(C)c1` (stereo not drawn) [Compound X-3, reference compound], the results for the pest or weed control at 15.625 g/ha (in [11]; in assay [12]; in the assay with Setaria faberi (SETFA) [13]) were 30%, 20% and 60%, respectively. In addition, the values for the pest or weed control at 62.5 g/ha (in assay [11]; in [12]; in the assay on Setaria faberi (SETFA) [13]) were 60%, 50% and 70%, respectively.
As to `C#Cc1cc(C)c(C2C(=O)C3CCC(C3)C2=O)c(C)c1` (stereo not drawn) [Compound X-2, reference compound], the pest or weed control at 15.625 g/ha in assay [11] stood at 0%; in assay [12] it was 0%; in the assay with Setaria faberi (SETFA) [13], 50%. In addition, the pest or weed control at 62.5 g/ha worked out at 10% in assay [11], 70% in assay [12] and 60% in the assay on Setaria faberi (SETFA) [13].
Turning to `CC#Cc1cc(Cl)c(C2=C(OC(=O)SCC)C3CCC(C3)C2=O)c(OCC(F)(F)F)c1` (stereo not drawn) [Compound P-6, [3-[2-Chloro-4-prop-1-ynyl-6-(2,2,2-trifluoroethoxyl)phenyl]-4-oxo-2-bicyclo[3.2.1]oct-2-enyl]ethylsulfanylformate], the pest or weed control at 250 g/ha in assay [1] came to 0%; in assay [2], 10%; in assay [3], 20%; in the assay on Setaria faberi (SETFA) [5] it was 10%; in [6] it was 0%; in assay [7], 50%. The values for the pest or weed control at 250 g/ha (in [8]; in [9]; with Setaria faberi (SETFA) [10]) were 20%, 80% and 50%, respectively.
Take `C#Cc1ccc(C2C(=O)C(C)(C)OC(C)(C)C2=O)c(C)c1` [Compound X-1, reference compound]: the pest or weed control at 15.625 g/ha amounted to 20% in assay [11], 0% in assay [12] and 0% in the assay on Setaria faberi (SETFA) [13]. Further, the values for the pest or weed control at 62.5 g/ha (in assay [11]; in assay [12]; with Setaria faberi (SETFA) [13]) were 10%, 0% and 30%, respectively.

The values above are taken from patent publication US9615577B2, “Herbicidally active cyclic dione compounds, or derivatives therefor, substituted by a phenyl which has an alkynyl-containing substituent” (Syngenta Limited, priority 2012, dated 2017).
